Data on 13 compounds can be found in paper PMC12290687, “Phenotypic Screening of the MMV Global Health Priority Box Identifies Selective Compounds with Anti-Toxoplasma gondii Activity” (ACS Omega, 2025).

Where two headings read alike, the source gives them in different places. A value given as a limit tells only on which side of the number the result lay.

Data set [1] deals with T. gondii intracellular tachyzoites. The data set is described as follows: microbe, parasite or virus in culture. It counts as cell-based, Toxoplasma gondii RH-2F1. The conditions noted are these: half effective concentration against T. gondii intracellular tachyzoites in HFF, MOI 1:1, 72 h, duplicates in three independent experiments. As for the experimental part:
(§1) Toxoplasma gondii RH-2F1 tachyzoites, which express β-galactosidase, were maintained in human foreskin fibroblasts (HFFs). HFFs were cultured in Dulbecco’s Modified Eagle Medium (DMEM) supplemented with 10% fetal bovine serum (FBS), 2 mM L-glutamine, and 40 μg/mL gentamicin (referred to as D10) and incubated at 37 °C in a 5% CO2 humidified atmosphere. For infection assays, confluent monolayers were maintained in DMEM with 2% FBS (D2) prior to parasite inoculation.
(§2) For in vitro assays in 96-well plates, HFFs were seeded at 5 × 10^3 cells/well in the D10 medium and incubated for 12–16 h to allow adherence. […] For antiparasitic assays, HFFs were infected with RH-2F1 tachyzoites at a multiplicity of infection (MOI) of 1:1 for 3 h.
Parasite proliferation was assessed by quantifying β-galactosidase activity, as previously described. Briefly, after the 72 h incubation, cells were lysed in 100 μL of lysis buffer (100 mM HEPES pH 7.5, 1 mM MgSO4, 0.1% Triton X-100, 5 mM DTT) for 15 min at room temperature. […] Following a 30 min incubation at 37 °C, absorbance was measured at 570 nm using a Varioskan LUX microplate reader (Thermo Scientific). Each assay included viability controls (untreated infected cells), solvent controls (1% DMSO), a positive control (1 μM pyrimethamine), and experimental blanks (no cells). All conditions were tested in two biological replicates in three independent experiments.
Compounds from the GHPB library were screened at a final concentration of 1 μM in infected HFF monolayers, using the β-galactosidase assay as a readout for parasite viability after 72 h.

Data set [2] can be described thus: Cytotoxicity assay (resazurin reduction) in uninfected HFFs. It counts as cell-based, human. Conditions: human. The procedure:
as §1, §2
(§3) The resazurin assay was used to evaluate the compound cytotoxicity in uninfected HFFs. Following 72 h treatment, 100 μM resazurin was added to each well and incubated for 4 h at 37 °C. Fluorescence was measured using excitation/emission wavelengths of 565/590 nm. Controls included untreated cells (viability control), 1% DMSO (solvent control), 50 μM pyrimethamine (reference drug), and blank wells (no cells). Each condition was tested in duplicate in three independent experiments.
(Resazurin is reduced to fluorescent resorufin, in cell work by metabolically active cells.)

The subject of data set [3] is P. falciparum ring stages. The conditions noted are these: literature report, reference mark not given; cited from earlier work.
The test system of data set [4] is human foreskin fibroblasts (HFF). Nature of the data set: Cytotoxicity assay (resazurin reduction) in uninfected HFFs. Format: cell-based. Conditions: half cytotoxic concentration against HFF, 72 h, highest concentration tested 50 μM. As for the experimental part: as §1, §2, §3
In data set [5] the test system is Plasmodium liver stages. Conditions: literature report, reference mark not given; cited from earlier work.
Data set [6] concerns HepG2 cell line. Also on record: method as in Timoumi et al. Conditions: ref Timoumi et al.; cited from earlier work.
Data set [7] concerns HEK293 cell line. Further details: method as in Timoumi et al. The conditions noted are these: ref Timoumi et al.; cited from earlier work.
Details of data set [8]: method as in Timoumi et al. The conditions noted are these: doses of 350–500 mg/kg; ref Timoumi et al.; cited from earlier work.
The subject of data set [9] is VERO/RAW cells. Further details: method as in Tali et al. Conditions: ref Tali et al.; cited from earlier work.
In data set [10] the test system is H. contortus. Also on record: method as in Shanley et al. (2024). Conditions: ref Shanley et al. (2024); cited from earlier work.
[11] abbreviates: uninfected human foreskin fibroblasts (HFF), half cytotoxic concentration against HFF, 72 h, highest concentration tested 50 μM, read-out: CC50 (μM) ± SD.

As to `CCOc1ccccc1NC(=O)Cn1c(=O)n(Cc2ccccc2)c(=O)c2c(C)c(C(=O)N(C)C)sc21` [MMV006430], in data set [1] (Toxoplasma gondii), the EC50 (as a rule, the concentration giving half of the maximal effect) was found to be 0.3 ± 0.03 µM. In addition, in data set [2] (setting [11]), the CC50 – broadly, the concentration that lowers cell viability or growth by half – at 72 h was > 50 µM. The “time to activity against P. falciparum ring stages (fast-acting)” value in [3] was “under 65 h”.
For the compound `O=C(Nc1ccc(Cl)c(C(F)(F)F)c1)Nc1ccc(Cl)c(C(F)(F)F)c1` [MMV027339], it took 0.5 ± 0.02 µM to reach a half-maximal effect in [1] (EC50). This compound also came in with a CC50 in data set [4] of 5.51 ± 0.86 µM.
In data set [1] (Toxoplasma gondii), `CS(=O)(=O)c1ccc(-c2cnn3c2NC(c2cccc(S(=O)(=O)C4CC4)c2)CC3)cc1` (stereo not shown) [MMV674132] came in with an EC50 of 0.19 ± 0.04 µM. In data set [2] (setting [11]), the CC50 at 72 h was > 50 µM. The “activity against Plasmodium liver stages” value in data set [5] is given as “activity”. The “time to activity against P. falciparum ring stages (fast-acting)” value in data set [3] was “under 65 h”.
With `O=C(NC(=O)c1ccccc1Cl)Nc1ccc(OC(F)(F)F)cc1` [MMV689404, Triflumuron], the EC50 in data set [1] (Toxoplasma gondii) worked out at 0.49 ± 0.03 µM. For the same compound, the CC50 at 72 h in [2] (half cytotoxic concentration against HFF, 72 h, highest concentration tested 50 μM, read-out: CC50 (μM) ± SD) is > 50 µM. Moreover, the CC50 in data set [6] is 120000 nM; in data set [7], 200000 nM. The “in vivo toxicity finding” value in data set [8] is “hepatotoxicity and oxidative stress”.
Take `CN(C)C1CC(NC(=O)c2ccc(Nc3nccc(-c4ccc(Cl)c(C(F)(F)F)c4)n3)cc2)C1` (stereo not shown) [MMV884814]: a half-maximal effect in [1] (EC50) was put at 0.76 ± 0.06 µM. Further, in [4], the midpoint of cytotoxicity, the CC50, lay at 4.1 ± 1.18 µM.
For `O=C(Nc1ncccc1O)c1ccc(N2CCOCC2)nc1` [MMV1103183], in that order: 0.72 ± 0.39 µM and > 50 µM.
For the compound `O=C(Nc1ncccc1O)c1ccc(Cn2cccn2)cc1` [MMV1266067], a half-maximal response in data set [1] (EC50) required 0.73 ± 0.13 µM. The CC50 in [4] is > 50 µM.
With `Cn1ccnc1SCC(=O)Nc1ccc(C(=O)Nc2ncccc2O)cc1` [MMV1267536], the 50% effective concentration (EC50) in data set [1] (Toxoplasma gondii) was 0.19 ± 0.03 µM. Besides, the CC50 at 72 h in data set [2] (setting [11]) amounted to 29.2 ± 2.79 µM. The “activity against Plasmodium liver stages” value in data set [5] was “activity”.
Compound `O=C(Nc1ncccc1O)c1ccc(S(=O)(=O)NCCc2cccs2)cc1` [MMV1435700] came in with an EC50 in [1] of 0.34 ± 0.08 µM. Besides, in [4], half-maximal cytotoxicity (CC50) was put at 20 ± 3.8 µM.
Turning to `Cn1c(O)c(C(=O)Nc2ccc(Cl)c(Cl)c2)c(=O)n(C)c1=O` [MMV1634081], the EC50 in data set [1] stood at 0.52 ± 0.01 µM. In [4], this compound showed a CC50 of 30.8 ± 4.55 µM.
`CO/C=C(/C(=O)OC)c1ccccc1COc1c(C)c(-c2ccc(C)cc2C)nn1C` [MMV1794211]: in data set [1] (Toxoplasma gondii), the midpoint of the response, the EC50, lay at 0.01 ± 0.01 µM. The CC50 in [9] is > 10000 nM.
In the case of `COc1cc(/C=N/c2c(SC(F)(F)F)c(C#N)nn2-c2c(Cl)cc(C(F)(F)F)cc2Cl)ccc1O` [MMV1794214, Vaniliprole], the EC50 in [1] (Toxoplasma gondii) was determined as 0.07 ± 0.04 µM. For the same compound, the cytotoxic concentration (CC50) at 72 h in data set [2] is > 50 µM. Moreover, the “effect on H. contortus” value in data set [10] was “impairs motility and larval development”.
Compound `CCc1nc(N)nc(N)c1-c1ccc(Cl)cc1` [Pyrimethamine, reference compound] showed a concentration giving a half-maximal response (EC50) in [1] (Toxoplasma gondii) of 0.38 ± 0.03 µM. Further, the half-maximal cytotoxic concentration (CC50) at 72 h in [2] (setting [11]) is > 50 µM.
